# Source: paper PMC6486649 (Analytica chimica acta, 2019)
# Experiments:
# hCMEC/D3 cells = format: in vitro ADME, human; settings: either individually or in combination, p<0.05, two-way ANOVA
# [1] = cited from earlier work
compound,measurement,setting,value
C[C@@H]1CCO[C@H]2Cn3cc(C(=O)NCc4ccc(F)cc4F)c(=O)c(O)c3C(=O)N12 [Dolutegravir],Intracellular accumulation compared with tenofovir or emtricitabine,hCMEC/D3 cells,significantly higher
same,LogP,[1],1.10
